The source of these data is ChEMBL document CHEMBL2331256, “Spiro heterocycles as potential inhibitors of SIRT1: Pd/C-mediated synthesis of novel N-indolylmethyl spiroindoline-3,2'-quinazolines” (Bioorg Med Chem Lett, 2013).

One may read the inhibition as the share of the control response that was lost under treatment.

In one series the test system is Saccharomyces cerevisiae. As to the kind of experiment: Cytotoxicity against yeast at 50 uM. The following applies: in vivo. In kind it is organism-based.
Series [1] addresses NAD-dependent histone deacetylase SIR2 (Saccharomyces cerevisiae S288c) (UniProt P06700). Briefly: Inhibition of Sir 2 protein mediated transcriptional silencing at the telomeric locus in yeast at 50 uM after 24 to 48 hrs by URA3 reporter gene assay. (A reporter such as luciferase makes a cellular process visible.)
Series [2] shares this target. Briefly: Inhibition of Sir 2 protein mediated transcriptional silencing at the telomeric locus in yeast after 24 to 48 hrs by URA3 reporter gene assay.
Series [3] shares this target. Briefly: Inhibition of Sir 2 protein mediated transcriptional silencing at the telomeric locus in yeast at 1 uM after 24 to 48 hrs by URA3 reporter gene assay.
Series [4] has the same target. Briefly: Inhibition of Sir 2 protein mediated transcriptional silencing at the telomeric locus in yeast at 30 uM after 24 to 48 hrs by URA3 reporter gene assay.
Series [5] has the same target. As to the kind of experiment: Inhibition of Sir 2 protein mediated transcriptional silencing at the telomeric locus in yeast at 10 uM after 24 to 48 hrs by URA3 reporter gene assay.
For series [6] the target is unchanged. As to the kind of experiment: Inhibition of Sir 2 protein mediated transcriptional silencing at the telomeric locus in yeast at 100 uM after 24 to 48 hrs by URA3 reporter gene assay.

Sequence of NAD-dependent histone deacetylase SIR2 (Saccharomyces cerevisiae S288c) (P06700 whole entry): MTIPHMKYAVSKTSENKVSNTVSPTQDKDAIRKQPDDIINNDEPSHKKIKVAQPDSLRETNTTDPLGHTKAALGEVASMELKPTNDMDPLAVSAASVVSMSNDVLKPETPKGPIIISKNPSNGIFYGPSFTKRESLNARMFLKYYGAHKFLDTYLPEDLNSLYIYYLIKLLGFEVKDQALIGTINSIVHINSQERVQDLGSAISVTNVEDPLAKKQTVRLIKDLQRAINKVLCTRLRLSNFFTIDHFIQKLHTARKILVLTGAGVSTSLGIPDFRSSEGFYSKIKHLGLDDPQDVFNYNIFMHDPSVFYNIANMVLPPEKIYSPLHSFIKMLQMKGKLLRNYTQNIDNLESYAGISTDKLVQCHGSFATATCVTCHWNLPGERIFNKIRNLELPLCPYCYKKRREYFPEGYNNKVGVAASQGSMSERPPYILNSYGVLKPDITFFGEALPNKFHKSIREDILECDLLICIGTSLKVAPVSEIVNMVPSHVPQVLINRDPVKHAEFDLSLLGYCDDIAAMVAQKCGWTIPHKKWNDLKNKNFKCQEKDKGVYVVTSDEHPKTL

As to `Cc1ccc2c(c1)cc(CN1C(=O)C3(NC(=O)c4ccccc4N3)c3ccccc31)n2S(C)(=O)=O` (stereo not drawn), the Activity entry in the series with Saccharomyces cerevisiae is “Non-toxic”. The compound further yielded an inhibition in series [1] of 40.9%.
For `CS(=O)(=O)n1c(CN2C(=O)C3(NC(=O)c4ccccc4N3)c3ccccc32)cc2cc(F)ccc21` (stereo not drawn), in that order: “Non-toxic” and 30.3%.
`CS(=O)(=O)n1c(CN2C(=O)C3(NC(=O)c4ccccc4N3)c3ccccc32)cc2cc(C(F)(F)F)ccc21` (stereo not drawn): the Activity entry in the series with Saccharomyces cerevisiae is given as “Non-toxic”. In series [1], this compound displayed an inhibition of 39.6%.
With `COc1ccc2c(c1)cc(CN1C(=O)C3(NC(=O)c4ccccc4N3)c3ccccc31)n2S(C)(=O)=O` (stereo not drawn), the inhibition entry in series [2] is “Dose-dependent effect”; in series [1], 39%; in series [3] it was 9%; in series [4], 29%; in series [5], 20%; in series [6], 67%. The Activity entry with Saccharomyces cerevisiae is recorded as “Non-toxic”.
For the compound `Cc1ccc(S(=O)(=O)n2c(CN3C(=O)C4(NC(=O)c5ccccc5N4)c4ccccc43)cc3cc(Br)ccc32)cc1` (stereo not drawn), in the series with Saccharomyces cerevisiae, the Activity entry is recorded as “Non-toxic”. Also, in series [1], the inhibition is 16.4%.
With `CS(=O)(=O)n1c(CN2C(=O)C3(NC(=O)c4ccccc4N3)c3ccccc32)cc2cc(Cl)ccc21` (stereo not drawn), the Activity result with Saccharomyces cerevisiae was “Non-toxic”. In addition, in series [1], the inhibition stood at 30.9%.
For `CS(=O)(=O)n1c(CN2C(=O)C3(NC(=O)c4ccccc4N3)c3ccccc32)cc2ccccc21` (stereo not drawn), in that order: “Non-toxic” and 13.9%.
On the same counts, the results for `CS(=O)(=O)n1c(CN2C(=O)C3(NC(=O)c4ccccc4N3)c3ccccc32)cc2cc(Br)ccc21` (stereo not drawn) are “Non-toxic” and 38.5%.
On to `Cc1ccc(S(=O)(=O)n2c(CN3C(=O)C4(NC(=O)c5ccccc5N4)c4ccccc43)cc3cc(Cl)ccc32)cc1` (stereo not drawn), for which the inhibition result in series [2] was “Dose-dependent effect”; in series [1], 40.9%; in series [3], 18%; in series [4], 37%; in series [5], 30%; in series [6], 56%. Further, the Activity entry in the series with Saccharomyces cerevisiae is listed as “Non-toxic”.
`COc1ccc2c(c1)cc(CN1C(=O)C3(NC(=O)c4ccccc4N3)c3ccccc31)n2S(=O)(=O)c1ccc(C)cc1` (stereo not drawn): the inhibition result was “Dose-dependent effect” in series [2]; 41% in series [1]; 12% in series [3]; 32% in series [4]; 25% in series [5]; 61% in series [6]. Also, the Activity entry in the series on Saccharomyces cerevisiae was “Non-toxic”.
As to `Cc1ccc(S(=O)(=O)n2c(CN3C(=O)C4(NC(=O)c5ccccc5N4)c4ccccc43)cc3cc(C(F)(F)F)ccc32)cc1` (stereo not drawn), in the series with Saccharomyces cerevisiae, the Activity entry is reported as “Non-toxic”. Moreover, the inhibition in series [1] worked out at 38.4%.
For `Cc1ccc(S(=O)(=O)n2c(CN3C(=O)C4(NC(=O)c5ccccc5N4)c4ccccc43)cc3cc(F)ccc32)cc1` (stereo not drawn), in that order: “Non-toxic” and 15.2%.
For `Cc1ccc(S(=O)(=O)n2c(CN3C(=O)C4(NC(=O)c5ccccc5N4)c4ccccc43)cc3ccccc32)cc1` (stereo not drawn), in that order: “Non-toxic” and 36.5%.
For `Cc1ccc(S(=O)(=O)n2c(CN3C(=O)C4(NC(=O)c5ccccc5N4)c4ccccc43)cc3cc(C)ccc32)cc1` (stereo not drawn), in that order: “Non-toxic” and 1.2%.
